“And” between values parts separate entries of the source, which are not always exact repeats. Equal entries are not always repeated. Toxic doses and inconclusive results are not listed. Rule as the data show it: active = T/C of 150% or more; inactive = T/C below 125%.
System: L1210 leukemia ip in BDF1 mice, survival T/C
Experiment: NCI In Vivo Anticancer Drug Screen. Data for tumor model L1210 Leukemia (intraperitoneal) in B6D2F1 (BDF1) mice
Conditions: endpoint: mean survival time, higher = longer survival
In short: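 Tumor cells were implanted, animals were treated, and survival was followed. The result divides the treated measurement by the vehicle-control measurement.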

[1] = dose: 100.0 mg/kg/injection, schedule: Q01DX009 (ip), vehicle: saline with Tween-80
[2] = dose: 100.0 mg/kg/injection, schedule: Q04DX003 (ip), vehicle: saline with Tween-80
[3] = dose: 200.0 mg/kg/injection, schedule: Q01DX009 (ip), vehicle: saline with Tween-80
[4] = dose: 200.0 mg/kg/injection, schedule: Q04DX003 (ip), vehicle: saline with Tween-80
[5] = dose: 400.0 mg/kg/injection, schedule: Q01DX009 (ip), vehicle: saline with Tween-80
[6] = dose: 400.0 mg/kg/injection, schedule: Q04DX003 (ip), vehicle: saline with Tween-80
[7] = dose: 100.0 mg/kg/injection, schedule: Q01DX009 (ip), vehicle: Klucel (hydroxypropylcellulose) (HPC)
[8] = dose: 200.0 mg/kg/injection, schedule: Q01DX009 (ip), vehicle: Klucel (hydroxypropylcellulose) (HPC)
[9] = dose: 400.0 mg/kg/injection, schedule: Q01DX009 (ip), vehicle: Klucel (hydroxypropylcellulose) (HPC)
[10] = dose: 50.0 mg/kg/injection, schedule: Q04DX002 (ip), vehicle: saline
[11] = dose: 100.0 mg/kg/injection, schedule: Q04DX002 (ip), vehicle: saline
[12] = dose: 200.0 mg/kg/injection, schedule: Q04DX002 (ip), vehicle: saline
[13] = dose: 400.0 mg/kg/injection, schedule: Q04DX002 (ip), vehicle: saline
[14] = dose: 100.0 mg/kg/injection, schedule: Q04DX003 (ip), vehicle: saline
[15] = dose: 100.0 mg/kg/injection, schedule: Q01DX001 (ip), vehicle: Klucel (hydroxypropylcellulose) (HPC)
[16] = dose: 200.0 mg/kg/injection, schedule: Q01DX001 (ip), vehicle: Klucel (hydroxypropylcellulose) (HPC)
[17] = dose: 400.0 mg/kg/injection, schedule: Q01DX001 (ip), vehicle: Klucel (hydroxypropylcellulose) (HPC)

Measured: T/C

CCOP(=S)(N1CCNCC1)N1CCNCC1
inactive: dose: 75.0 mg/kg/injection, schedule: Q01DX001 (ip), vehicle: saline 90 % of control | dose: 75.0 mg/kg/injection, schedule: Q01DX009 (ip), vehicle: Klucel (hydroxypropylcellulose) (HPC) 95 % of control | dose: 150.0 mg/kg/injection, schedule: Q01DX001 (ip), vehicle: saline 92 % of control | dose: 150.0 mg/kg/injection, schedule: Q01DX009 (ip), vehicle: Klucel (hydroxypropylcellulose) (HPC) 120 % of control | dose: 300.0 mg/kg/injection, schedule: Q01DX001 (ip), vehicle: saline 100 % of control

O=c1cc(Cl)c2ccccc2[nH]1
inactive: [1] 95 % of control | [2] 103 % of control | [3] 91 % of control | [4] 94 % of control | [5] 100 % of control | [6] 103 % of control

CCOP(=S)(S)OCC.[Cr]
inactive: dose: 50.0 mg/kg/injection, schedule: Q01DX001 (ip), vehicle: other 98 % of control | dose: 100.0 mg/kg/injection, schedule: Q01DX001 (ip), vehicle: other 98 % of control | dose: 200.0 mg/kg/injection, schedule: Q01DX001 (ip), vehicle: other 102 % of control | dose: 400.0 mg/kg/injection, schedule: Q01DX001 (ip), vehicle: other 96 % of control

CCCCC1=C(C)C(=O)OC1=O
inactive: [2] 95 % of control | [4] 95 % of control | [6] 103 % of control

NCCOS(=O)(=O)O
inactive: [7] 105 % of control | [1] 92 % of control | [8] 101 % of control | [3] 108 % of control | [9] 100 % of control | [5] 99 % of control

N/N=C(\N)NC(=O)c1ccccc1
inactive: dose: 15.0 mg/kg/injection, schedule: Q01DX Z (ip), vehicle: saline 103 % of control | dose: 30.0 mg/kg/injection, schedule: Q01DX Z (ip), vehicle: saline 97 % of control | dose: 60.0 mg/kg/injection, schedule: Q01DX Z (ip), vehicle: saline 94 % of control | dose: 120.0 mg/kg/injection, schedule: Q01DX Z (ip), vehicle: saline 105 % of control | dose: 240.0 mg/kg/injection, schedule: Q01DX Z (oral), vehicle: saline 108 % of control | dose: 480.0 mg/kg/injection, schedule: Q01DX Z (oral), vehicle: saline 95 % of control | dose: 960.0 mg/kg/injection, schedule: Q01DX Z (oral), vehicle: saline 103 % of control | dose: 1920.0 mg/kg/injection, schedule: Q01DX Z (oral), vehicle: saline 101 % of control

NC(CSS(=O)(=O)O)=NCCC1=NCCN1
inactive: dose: 25.0 mg/kg/injection, schedule: Q04DX002 (ip), vehicle: saline 101 % of control | [10] 101 % of control | [11] 101 % of control | [12] 96 % of control and 107 % of control | [13] 115 % of control

CCOc1ccccc1NC(=O)C1CCCCC1C(=O)O (stereo not given)
inactive: [11] 96 % of control | [12] 112 % of control

CCCCCCOC(=O)CCCCCCCCCCC(=O)CCCCCC
inactive: dose: 50.0 mg/kg/injection, schedule: Q01DX009 (ip), vehicle: Klucel (hydroxypropylcellulose) (HPC) 97 % of control | dose: 50.0 mg/kg/injection, schedule: Q04DX003 (ip), vehicle: saline 101 % of control | [7] 108 % of control | [14] 103 % of control | [8] 92 % of control | dose: 200.0 mg/kg/injection, schedule: Q04DX003 (ip), vehicle: saline 106 % of control

[Br][V]([Br])[Br]
inactive: dose: 12.0 mg/kg/injection, schedule: Q01DX009 (ip), vehicle: saline 97 % of control | dose: 25.0 mg/kg/injection, schedule: Q01DX009 (ip), vehicle: saline sonified 92 % of control | dose: 25.0 mg/kg/injection, schedule: Q01DX009 (ip), vehicle: saline 93 % of control | dose: 50.0 mg/kg/injection, schedule: Q01DX009 (ip), vehicle: saline 102 % of control | [14] 102 % of control

CCCCCCCCCCCCCCCCC/C(CC)=N/Nc1ccc([N+](=O)[O-])cc1[N+](=O)[O-]
inactive: [15] 104 % of control | [16] 106 % of control | [17] 97 % of control

C=C1CCOC1=O
inactive: [11] 104 % of control | [12] 108 % of control | [13] 106 % of control

CCCCCCCC/C=C\CCCCCCCC(=O)OCCCCCCCCCCCCCCCCC
inactive: dose: 75.0 mg/kg/injection, schedule: Q01DX009 (ip), vehicle: saline sonified 106 % of control | [7] 94 % of control | dose: 150.0 mg/kg/injection, schedule: Q01DX009 (ip), vehicle: saline sonified 104 % of control | [8] 91 % of control | dose: 300.0 mg/kg/injection, schedule: Q01DX009 (ip), vehicle: saline sonified 96 % of control | [9] 110 % of control

CCOC(=O)c1c[nH]c2cc(OCC(C)C)c(OCC(C)C)cc2c1=O
inactive: dose: 100.0 mg/kg/injection, schedule: Q01DX001 (ip), vehicle: saline with Tween-80 104 % of control | dose: 200.0 mg/kg/injection, schedule: Q01DX001 (ip), vehicle: saline with Tween-80 100 % of control | dose: 400.0 mg/kg/injection, schedule: Q01DX001 (ip), vehicle: saline with Tween-80 86 % of control

CCOc1ccc(NC(=O)CC(C)=O)cc1
inactive: dose: 25.0 mg/kg/injection, schedule: Q04DX003 (ip), vehicle: other 95 % of control | dose: 50.0 mg/kg/injection, schedule: Q04DX003 (ip), vehicle: other 100 % of control | dose: 100.0 mg/kg/injection, schedule: Q04DX003 (ip), vehicle: other 96 % of control

CC([NH-])C(C)[NH-].CC([NH-])C(C)[NH-].[Cl][Co][Cl] (stereo not given)
inactive: [10] 102 % of control | [11] 112 % of control | [12] 122 % of control

COc1ccc([N+](=O)[O-])cc1NC(=O)Nc1ccc(S(N)(=O)=O)cc1
inactive: [7] 101 % of control | [8] 92 % of control | [9] 94 % of control

CC(=O)Nc1ccc(/C=C2N=C(/C=C/c3ccccc3)OC\2=O)cc1
inactive: dose: 100.0 mg/kg/injection, schedule: Q04DX002 (ip), vehicle: Klucel (hydroxypropylcellulose) (HPC) 94 % of control | dose: 200.0 mg/kg/injection, schedule: Q04DX002 (ip), vehicle: Klucel (hydroxypropylcellulose) (HPC) 105 % of control | dose: 400.0 mg/kg/injection, schedule: Q04DX002 (ip), vehicle: Klucel (hydroxypropylcellulose) (HPC) 90 % of control

c1cncc(-c2ncnc3c2Cc2ccccc2-3)c1
inactive: dose: 100.0 mg/kg/injection, schedule: Q04DX003 (ip), vehicle: Klucel (hydroxypropylcellulose) (HPC) 97 % of control | dose: 200.0 mg/kg/injection, schedule: Q04DX003 (ip), vehicle: Klucel (hydroxypropylcellulose) (HPC) 111 % of control

O=C(Nc1cccc(C(F)(F)F)c1)Nc1cccc(C(F)(F)F)c1
inactive: [15] 94 % of control and 91 % of control | [2] 97 % of control and 87 % of control | [16] 98 % of control | [4] 99 % of control and 87 % of control | [17] 94 % of control | [6] 97 % of control and 89 % of control

— PubChem BioAssay AID248 (DTP/NCI, 2004)
